The text below walks through data of US20220298135A1, “5-HETEROARYL-PYRIDIN-2-AMINE COMPOUNDS AS NEUROPEPTIDE FF RECEPTOR ANTAGONISTS” (Domain Therapeutics, priority 2019, published 2022).

Data set [1] relates to hyperalgesia induced by the repeated administration of opiate analgesics. To be noted: administered in vivo in the rat; cited from earlier work.
Data set [2] concerns the target T1, human NPFFR1 (hNPFFR1) receptor (Homo sapiens, UniProt Q9GZQ6).
T1 construct: expressed in transfected cells; host or cells: HEK-293 T cells, transient co-transfection with polyethylenimine
In words: Human NPFFR1 evaluation using BRET biosensors (antagonist IC50). The data set is classed as cell-based. To be noted: hNPFFR1 transiently over-expressed in HEK-293 T cells; BRET signal; stimulation by EC80 RFRP-3. A digest of the protocol: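 HEK-293T cells co-transfected with receptor, GαoB and Gi-effector BRET biosensor pair, assayed 48 h later. Compound 10 min, then EC80 RFRP-3 with 10 min luminescence read; IC50 from 20-concentration variable-slope fit, duplicate, two independent experiments.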

Data set [3] deals with morphine-induced hyperalgesia. In words: Morphine-induced hyperalgesia model in the mouse (tail immersion test). The data set is classed as in vivo. Particulars: 10 mg/kg s.c.; morphine 10 mg/kg s.c. daily during 8 days; male C57/B16N mice; tail immersion test 47° C. The procedure: This method, which detects opioid-induced hyperalgesia, follows those well-known by one skilled in the art and described in the literature (Elhabazi K et al., J Vis Exp. 2014; (89):e51264). The procedure applied to the compounds of the invention is as follows:
Nociceptive thresholds are assessed using the tail immersion test (TIT). After TIT, mice are treated daily during 8 consecutive days with morphine (10 mg/kg, sub-cutaneous s.c.) +/− tested compounds (10 mg/kg, s.c.) 20 min before morphine injection for example 31 and 32 and twice a day for examples 56 and 143 (20 min before morphine injection, and in the afternoon).
Mice used were male C57/B16N 8 weeks old at the beginning of the experiment. During TIT the tail of the animal is immersed two-thirds in a water bath at 47° C. and the withdrawal latency is recorded in seconds. The cutoff is 25 seconds, to avoid tissue damage. After TIT mice received an injection depending on their group then are replaced to their home cages.
FIGS. 1A and 1B show the mean time of tail withdrawal latency in each group of animals. The anti-hyperalgesia effect of the tested compounds was compared to vehicle-treated group using ANOVA test followed by the Bonferroni's test.

Some results are limits rather than exact numbers.

T1 sequence (Q9GZQ6 whole entry): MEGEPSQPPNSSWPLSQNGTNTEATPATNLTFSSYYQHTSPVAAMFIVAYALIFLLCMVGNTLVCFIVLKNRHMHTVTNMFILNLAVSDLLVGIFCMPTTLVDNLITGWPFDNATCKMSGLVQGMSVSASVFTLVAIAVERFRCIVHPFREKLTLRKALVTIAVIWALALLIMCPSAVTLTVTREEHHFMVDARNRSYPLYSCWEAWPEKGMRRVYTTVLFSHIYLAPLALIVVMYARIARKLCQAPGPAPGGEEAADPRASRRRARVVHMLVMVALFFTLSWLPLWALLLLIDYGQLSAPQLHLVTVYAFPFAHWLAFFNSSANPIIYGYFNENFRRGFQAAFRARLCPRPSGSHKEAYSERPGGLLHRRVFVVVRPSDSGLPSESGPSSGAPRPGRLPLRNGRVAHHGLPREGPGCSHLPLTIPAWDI

In the case of “Na-adamantan-1-yl-L-Arg-L-Phe-NH2 acetate [RF9]”, the antihyperalgesic activity result in data set [1] is given as “antihyperalgesic activity”.
A word on the melting point: it is the temperature of the solid-liquid transition. The term IC50 denotes the concentration that inhibits the measured activity by half. A lower IC50 goes with inhibition by little substance. With `CCc1nc(N)ccc1-c1c(F)ccc2cc(F)cnc12.Cl` [Example 143, 5-(3,7-difluoroquinolin-8-yl)-6-ethylpyridin-2-amine], the melting point was 245 to 250 °C. The IC50 in data set [2] is < 100 nM. Besides, the “blockade of morphine-induced hyperalgesia (tail withdrawal latency)” value in data set [3] is given as “significant blockade of morphine-induced hyperalgesia”.
Turning to `Cl.Nc1ccc(-c2cccc3ccc(=O)[nH]c23)c(N)n1` [Example 56, 8-(2,6-diaminopyridin-3-yl)quinolin-2(1H)-one], the melting point is > 250 °C. For the same molecule, in data set [2], the IC50 was < 100 nM. The “blockade of morphine-induced hyperalgesia (tail withdrawal latency)” value in data set [3] is “significant blockade of morphine-induced hyperalgesia”.
